Reference: patent US11673855B2, “Voltage gated sodium channel imaging agents” (The General Hospital Corporation, priority 2017, dated 2023)
“Also recorded” adds a separate entry of the source.

Columns and labels:
SCN5A [1] = molecular target: T1, SCN5A (Rattus norvegicus, UniProt P15389); experiment: Ex vivo F-18 autoradiography of rat myocardium; type: binding
T1 construct: Heart sections ([…] thickness) were prepared using a −20° C. cryostat and thaw-mounted onto gelatin-coated slides; from tissue; host or cells: rat heart (myocardium) cryosections
T1 sequence (P15389 whole entry): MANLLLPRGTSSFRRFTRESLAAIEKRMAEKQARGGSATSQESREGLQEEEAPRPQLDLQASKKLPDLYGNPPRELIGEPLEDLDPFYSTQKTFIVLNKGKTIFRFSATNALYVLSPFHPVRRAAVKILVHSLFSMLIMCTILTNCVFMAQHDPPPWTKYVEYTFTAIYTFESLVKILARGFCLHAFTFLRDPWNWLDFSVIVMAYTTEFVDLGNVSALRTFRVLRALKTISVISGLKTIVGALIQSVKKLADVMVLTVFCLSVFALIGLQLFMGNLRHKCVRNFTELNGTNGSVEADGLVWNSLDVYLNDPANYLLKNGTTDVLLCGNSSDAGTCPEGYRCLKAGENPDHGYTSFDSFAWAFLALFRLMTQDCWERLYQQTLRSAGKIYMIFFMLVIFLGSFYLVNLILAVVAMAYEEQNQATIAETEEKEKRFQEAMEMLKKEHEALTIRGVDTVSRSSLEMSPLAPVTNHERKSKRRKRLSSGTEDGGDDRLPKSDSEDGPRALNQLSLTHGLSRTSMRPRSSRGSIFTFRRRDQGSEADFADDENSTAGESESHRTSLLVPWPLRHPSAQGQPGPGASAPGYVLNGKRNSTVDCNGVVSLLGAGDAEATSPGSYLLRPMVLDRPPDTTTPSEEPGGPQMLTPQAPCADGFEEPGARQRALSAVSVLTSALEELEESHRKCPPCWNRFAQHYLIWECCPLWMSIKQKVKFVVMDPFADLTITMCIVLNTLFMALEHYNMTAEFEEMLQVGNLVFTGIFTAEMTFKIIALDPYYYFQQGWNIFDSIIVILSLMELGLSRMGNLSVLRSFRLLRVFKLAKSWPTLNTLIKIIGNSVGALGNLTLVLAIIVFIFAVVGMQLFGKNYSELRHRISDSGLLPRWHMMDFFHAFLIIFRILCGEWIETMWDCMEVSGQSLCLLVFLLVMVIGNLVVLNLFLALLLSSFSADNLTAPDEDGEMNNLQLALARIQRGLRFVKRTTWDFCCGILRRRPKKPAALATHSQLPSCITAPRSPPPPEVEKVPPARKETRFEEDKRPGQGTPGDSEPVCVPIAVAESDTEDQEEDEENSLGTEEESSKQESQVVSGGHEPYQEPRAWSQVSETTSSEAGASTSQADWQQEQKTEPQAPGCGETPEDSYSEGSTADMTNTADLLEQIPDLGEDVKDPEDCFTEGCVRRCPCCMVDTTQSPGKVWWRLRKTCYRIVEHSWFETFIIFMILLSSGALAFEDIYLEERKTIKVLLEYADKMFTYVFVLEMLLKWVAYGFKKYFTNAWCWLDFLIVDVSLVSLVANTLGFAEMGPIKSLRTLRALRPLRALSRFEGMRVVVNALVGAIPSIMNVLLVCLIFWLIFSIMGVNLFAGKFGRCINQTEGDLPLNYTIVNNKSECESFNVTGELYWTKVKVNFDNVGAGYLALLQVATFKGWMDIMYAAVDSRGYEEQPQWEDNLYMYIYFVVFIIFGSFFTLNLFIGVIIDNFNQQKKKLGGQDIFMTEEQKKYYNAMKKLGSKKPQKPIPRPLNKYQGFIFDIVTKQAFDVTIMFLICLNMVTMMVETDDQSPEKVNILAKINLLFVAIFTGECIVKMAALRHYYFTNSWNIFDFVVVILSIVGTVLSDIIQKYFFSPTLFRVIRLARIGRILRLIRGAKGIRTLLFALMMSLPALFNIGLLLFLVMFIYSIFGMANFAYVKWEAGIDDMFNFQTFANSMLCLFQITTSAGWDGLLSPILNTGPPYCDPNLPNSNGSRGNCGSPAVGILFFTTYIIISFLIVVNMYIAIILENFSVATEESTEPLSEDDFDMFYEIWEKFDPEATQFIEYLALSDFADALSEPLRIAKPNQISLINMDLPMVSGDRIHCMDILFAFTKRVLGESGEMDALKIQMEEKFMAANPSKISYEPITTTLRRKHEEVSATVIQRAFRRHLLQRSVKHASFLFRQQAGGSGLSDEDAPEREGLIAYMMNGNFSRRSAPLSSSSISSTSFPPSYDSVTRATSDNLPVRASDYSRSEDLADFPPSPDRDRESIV
Method: Heart sections ([…] thickness) were prepared using a −20° C. cryostat and thaw-mounted onto gelatin-coated slides. The slides were stored at −20° C. until the day of the experiment. […] Individual images of sections were cropped using ImageJ with no additional adjustment to color levels/thresholds. The experimental setup was designed such that both baseline and competition experiments contained the same amount of radioactivity and were imaged on the same screen. […] For variation of washing times, the incubation was held constant at 15 min.

SCN5A [2] = molecular target: T2, SCN5A (Homo sapiens, UniProt Q14524); experiment: Ex vivo autoradiography of human heart tissue, self-displacement dose-response; type: binding; details: self-inhibition, modified Cheng-Prusoff equation
T2 construct: Non-failing human donor heart samples were compared to explanted tissue from patients who had suffered from heart failure; from tissue; host or cells: human left ventricular myocardium (non-failing donor hearts and explanted DCM-failing hearts)
T2 sequence (Q14524 whole entry): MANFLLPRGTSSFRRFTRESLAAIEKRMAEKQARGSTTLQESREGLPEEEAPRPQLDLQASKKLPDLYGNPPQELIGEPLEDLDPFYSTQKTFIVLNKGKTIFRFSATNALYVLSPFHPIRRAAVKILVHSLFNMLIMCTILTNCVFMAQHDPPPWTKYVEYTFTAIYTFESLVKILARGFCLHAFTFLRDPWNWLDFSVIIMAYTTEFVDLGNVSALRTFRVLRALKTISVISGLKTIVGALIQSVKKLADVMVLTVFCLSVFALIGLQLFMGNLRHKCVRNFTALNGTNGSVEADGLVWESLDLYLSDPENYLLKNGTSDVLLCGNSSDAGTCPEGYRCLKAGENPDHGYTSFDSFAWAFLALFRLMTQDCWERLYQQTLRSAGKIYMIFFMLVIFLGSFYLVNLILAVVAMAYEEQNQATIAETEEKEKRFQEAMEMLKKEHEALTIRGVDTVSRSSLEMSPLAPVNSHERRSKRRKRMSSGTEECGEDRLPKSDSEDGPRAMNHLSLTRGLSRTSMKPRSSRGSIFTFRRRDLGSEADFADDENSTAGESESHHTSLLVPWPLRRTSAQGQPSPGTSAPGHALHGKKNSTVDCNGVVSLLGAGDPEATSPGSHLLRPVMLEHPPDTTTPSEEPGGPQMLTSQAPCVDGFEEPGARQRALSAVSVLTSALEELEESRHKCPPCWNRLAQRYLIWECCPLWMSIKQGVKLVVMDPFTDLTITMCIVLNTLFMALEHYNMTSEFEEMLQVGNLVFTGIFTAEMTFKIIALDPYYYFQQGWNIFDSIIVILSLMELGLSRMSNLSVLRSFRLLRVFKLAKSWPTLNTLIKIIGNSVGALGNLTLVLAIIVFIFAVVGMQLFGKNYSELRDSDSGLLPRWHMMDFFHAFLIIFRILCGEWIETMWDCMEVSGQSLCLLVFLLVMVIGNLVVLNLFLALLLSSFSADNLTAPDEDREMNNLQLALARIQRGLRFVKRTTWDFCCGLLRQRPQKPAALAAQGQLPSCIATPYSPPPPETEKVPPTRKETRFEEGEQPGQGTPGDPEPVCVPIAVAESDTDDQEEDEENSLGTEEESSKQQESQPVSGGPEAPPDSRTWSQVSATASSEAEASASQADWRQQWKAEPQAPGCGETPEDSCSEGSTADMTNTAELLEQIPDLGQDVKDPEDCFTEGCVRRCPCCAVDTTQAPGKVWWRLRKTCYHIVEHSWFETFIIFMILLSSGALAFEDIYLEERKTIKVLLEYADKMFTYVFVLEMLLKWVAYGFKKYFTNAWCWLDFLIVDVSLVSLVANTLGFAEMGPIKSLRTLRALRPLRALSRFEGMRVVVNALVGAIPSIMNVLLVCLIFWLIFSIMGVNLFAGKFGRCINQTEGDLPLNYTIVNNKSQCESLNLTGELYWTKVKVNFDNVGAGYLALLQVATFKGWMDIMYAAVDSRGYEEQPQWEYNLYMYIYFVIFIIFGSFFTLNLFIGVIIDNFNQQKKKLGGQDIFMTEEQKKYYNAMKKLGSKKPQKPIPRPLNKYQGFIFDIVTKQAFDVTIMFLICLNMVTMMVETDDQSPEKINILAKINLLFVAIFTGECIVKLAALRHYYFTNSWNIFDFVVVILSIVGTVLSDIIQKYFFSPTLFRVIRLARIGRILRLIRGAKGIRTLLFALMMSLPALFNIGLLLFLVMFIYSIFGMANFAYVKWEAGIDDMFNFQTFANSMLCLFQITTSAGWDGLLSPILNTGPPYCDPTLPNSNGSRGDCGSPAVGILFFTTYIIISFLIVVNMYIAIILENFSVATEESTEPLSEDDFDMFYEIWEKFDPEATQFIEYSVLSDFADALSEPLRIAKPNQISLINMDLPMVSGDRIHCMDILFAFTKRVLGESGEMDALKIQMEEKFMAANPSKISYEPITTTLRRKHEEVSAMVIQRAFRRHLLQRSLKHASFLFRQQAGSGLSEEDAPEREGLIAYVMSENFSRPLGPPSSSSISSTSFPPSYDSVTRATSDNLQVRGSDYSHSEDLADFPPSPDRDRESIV
From the text: Non-failing human donor heart samples were compared to explanted tissue from patients who had suffered from heart failure due to idiopathic dilated cardiomyopathy (DCM) and required cardiac transplantation, as shown in FIGS. 4A-4B (see e.g., Japp et al, J. Am. Coll. Cardiol. 2016, 67:2996-3010).
To exclude that the reduced signal was the result of a decrease in affinity in diseased vs. healthy tissue and confirm a deficit in channel density, dose-response experiments were performing using N-(2,6-dimethylphenyl)-2-(ethyl(2-fluoroethyl)amino)acetamide as the competition ligand. Using the modified Cheng-Prusoff equation for self-inhibition, these measurements allowed for the determination of Kd-values for the groups NF1 and F1, as shown in FIG. 4B. […] A ˜30% reduction in Bmax was observed.

[3] = tested on: myocardium of non-human primates; experiment: PET/MR imaging of non-human primates; type: in vivo
Method: Two female baboons (Papio anubis, weight=15.2±1.6 kg) were deprived of food for 12 h prior to the study. Anesthesia was induced with intramuscular ketamine (10 mg/kg) and xylazine (0.5 mg/kg). After endotracheal intubation, the baboons were catheterized antecubitally for injection of the radiolabeled compound. Anesthesia was maintained using isoflurane (1-1.5%, 100% oxygen, 1 L/min) during the scan, and ketamine/xylazine effects were reversed with yobine (0.11 mg/kg, i.m.) before image acquisition. Vital signs, including heart rate, respiration rate, blood pressure, O2 saturation, and end tidal CO2, were monitored continuously and recorded every 15 min. Simultaneous PET/MR data were acquired using a Siemens Biograph mMR system (Siemens Healthcare, Erlangen, Germany). Each animal underwent a baseline and a blocking scan on two separate days. MR body imaging was performed with real-time respiratory bellow gating and using the body matrix coil and the built-in spine coil as the receiving coil elements. High-resolution anatomical T1-weighted, dual echo, gradient echo sequence was acquired with the following parameters: TR=194 ms, TE1/TE2=1.23/2.46 ms, matrix size 256×256, FOV=35 cm, phase FOV 65.6% (in-plane resolution=1.4 mm), 4 mm slice thickness, and 80 slices. For the purpose of MR-based attenuation correction of the PET data, a T1-weighted, 2-point Dixon 3D volumetric interpolated breath-hold examination (VIBE) scan was obtained. PET data were obtained using a single-bed position with an axial field of view of 25.8 cm, and a transverse field of view of 59.4 cm. PET data were acquired dynamically for 60 min (bolus injection of N-(2,6-dimethylphenyl)-2-(ethyl(2-(fluoro-^18F)ethyl)amino)acetamide) or 90 min (bolus/infusion of N-(2,6-dimethylphenyl)-2-(ethyl(2-(fluoro-^18F)ethyl)amino)acetamide) after intravenous administration of N-(2,6-dimethylphenyl)-2-(ethyl(2-(fluoro-^18F)ethyl)amino)acetamide (5.0±0.2 mCi bolus or 4 mCi bolus+4 mCi infusion). […] Standard uptake unit (SUV) was calculated as the mean radioactivity per injected dose per weight.

rat myocardium = experiment: Rodent PET-CT imaging of the myocardium, single bolus and bolus+infusion, with lidocaine block; type: in vivo
Method: Male Sprague-Dawley rats (400-500 g) were anesthetized with inhalational isoflurane (Forane) (3% in a carrier of 1.5-2 L/min medical oxygen for induction and 2% isoflurane for maintenance of anesthesia during the scan). Lateral tail vein catheters were placed for intravenous (i.v.) injection of the compounds. Two rats were arranged head-to-head in a Triumph Trimodality PET/CT/SPECT scanner (Gamma Medica, Northridge, Calif.) or a MicroPET P4 scanner. […] Dynamic PET acquisition was performed over 45 min and was followed by computed tomography (CT) for anatomic coregistration and attenuation correction. […] Reconstructed images were exported from the scanner in DICOM format along with an anatomic CT for rodent studies. These files were imported to AMIDE and Gaussian filtered (kernel size=15, fwhm=1.5 mm). Regions of interest (ROIs) were drawn manually at the lung and myocardium guided by high-resolution CT structural images and summed PET data. Time-activity-curves (TACs) were exported in terms of decay corrected activity per unit volume at specified time points with gradually increasing intervals.

In the case of `CCN(CCF)CC(=O)Nc1c(C)cccc1C` [Example 1, N-(2,6-dimethylphenyl)-2-(ethyl(2-fluoroethyl)amino)acetamide], the “level of non-specific / non-displaceable binding (BNS) as competition ligand” value (SCN5A [1]; competition ligands at the same concentration against the 18F tracer) is reported as “same level of BNS as lidocaine; also recorded: same level of non-displaceable binding” and the “Kd-values, non-failing (NF1) vs failing (F1) left ventricular tissue” value (SCN5A [2]) is reported as “no difference in Kd-values between the groups”.

In the case of `CCN(CC[18F])CC(=O)Nc1c(C)cccc1C` [Example 2, N-(2,6-dimethylphenyl)-2-(ethyl(2-(fluoro-^18F)ethyl)amino)acetamide], the “reduction of total binding on wash-out” value (SCN5A [1]; after 1 min wash, incubation 15 min) is reported as 50%, the “incubation time after which specific binding (BS) reached a constant level” value (SCN5A [1]; incubation times 1, 5, 10, 20 min, wash 1 min) is reported as 5 min and the “specific binding (BS) as share of overall binding” value (SCN5A [1]; rat myocardial slices 20 μm, self-competition with excess (500 μM) unlabeled compound) is reported as ~70%. For the same compound, the estimated residence time ([3]; bolus 4 mCi + infusion 4 mCi over 90 min, lidocaine challenge) was 5 min⁻¹, the “time after which blood background cleared” value ([3]; single bolus, healthy baboon) was 2 to 3 min and the “residence time (t1/2^−1) of the radiotracer” value (rat myocardium; from time course of signal reduction after lidocaine, estimation) was ~1 min⁻¹. For the same compound, the “time to stable baseline signal” value (rat myocardium; i.v. bolus ~150 μCi followed by constant infusion ~300 μCi over 60 min) was 20 min, the “time for tracer bolus to reach peak signal” value (rat myocardium; single bolus) was 3 min and the “time after bolus injection at which blood pool had cleared and myocardial signal was revealed” value (rat myocardium; single i.v. bolus) was 3 min. For the same compound, the myocardial baseline signal (rat myocardium; single i.v. bolus, healthy rats) was “up to 2 % ID/cc”.

In the case of `CCN(CC)CC(=O)Nc1c(C)cccc1C` [lidocaine, reference compound], the “effect of lidocaine pre-block on myocardial tracer signal” value ([3]; 5 mg/kg i.v. lidocaine 5 min prior to tracer) is reported as “blocked the myocardial signal; also recorded: suppressed the myocardial signal to background levels”, the “time to plateau of full block after the pharmacological dose” value (rat myocardium; 5 mg/kg lidocaine) is reported as 3 minutes and the “reduction of tracer signal by in-scan lidocaine challenge” value (rat myocardium; 5 mg/kg lidocaine i.v., bolus+infusion paradigm) is reported as “complete reduction of the radiolabeled compound signal to background level”. For the same compound, the “lidocaine dose from which reduction of myocardial tracer signal was observed” value (rat myocardium; i.v. 5 min before tracer, compared to vehicle) was 0.1 mg/kg and the “in vivo IC50 at the myocardium” value (rat myocardium; in-scan lidocaine challenges 0.5-5 mg/kg i.v., bolus+infusion, estimation) was ~0.7 mg/kg.
